From ChEMBL document CHEMBL3112480, “γ-Alkylidene-γ-lactones and isobutylpyrrol-2(5H)-ones analogues to rubrolides as inhibitors of biofilm formation by gram-positive and gram-negative bacteria” (Bioorg Med Chem Lett, 2014)
≈ marks a conversion by molar mass, not a printed value.

What was measured:
Pseudomonas aeruginosa [1] = test: Antibacterial activity against Pseudomonas aeruginosa ATCC 27853 assessed as effect on planktonic growth at 0.68 ug/ml after 20 hrs relative to control; format: functional
Staphylococcus aureus [2] = test: Antibacterial activity against Staphylococcus aureus ATCC 25923 assessed as effect on planktonic growth at 0.34 ug/ml after 20 hrs relative to control; format: functional
Staphylococcus aureus [3] = test: Antibacterial activity against Staphylococcus aureus ATCC 25923 assessed as effect on planktonic growth at 10.9 ug/ml after 20 hrs relative to control; format: functional
[4] = test system: Staphylococcus epidermidis; test: Antibacterial activity against Staphylococcus epidermidis ATCC 35547 assessed as effect on planktonic growth at 1.37 ug/ml after 20 hrs relative to control; format: functional
[5] = test system: Staphylococcus epidermidis; test: Antibacterial activity against Staphylococcus epidermidis ATCC 35547 assessed as effect on planktonic growth at 0.17 ug/ml after 20 hrs relative to control; format: functional
Streptococcus mutans [6] = test: Antibacterial activity against Streptococcus mutans ATCC 25175 assessed as effect on planktonic growth at 10.9 ug/ml after 20 hrs relative to control; format: functional
Pseudomonas aeruginosa [7] = test: Antibacterial activity against Pseudomonas aeruginosa ATCC 27853 assessed as effect on planktonic growth at 21.9 ug/ml after 20 hrs relative to control; format: functional
Streptococcus mutans [8] = test: Antibacterial activity against Streptococcus mutans ATCC 25175 assessed as effect on planktonic growth at 0.17 ug/ml after 20 hrs relative to control; format: functional
Pseudomonas aeruginosa [9] = test: Antibacterial activity against Pseudomonas aeruginosa ATCC 27853 assessed as effect on planktonic growth at 87.5 ug/ml after 20 hrs relative to control; format: functional
[10] = test system: Staphylococcus epidermidis; test: Antibacterial activity against Staphylococcus epidermidis ATCC 35547 assessed as effect on planktonic growth at 87.5 ug/ml after 20 hrs relative to control; format: functional
Staphylococcus aureus [11] = test: Antibacterial activity against Staphylococcus aureus ATCC 25923 assessed as effect on planktonic growth at 87.5 ug/ml after 20 hrs relative to control; format: functional
Staphylococcus aureus [12] = test: Antibacterial activity against Staphylococcus aureus ATCC 25923 assessed as effect on planktonic growth at 0.68 ug/ml after 20 hrs relative to control; format: functional
Streptococcus mutans [13] = test: Antibacterial activity against Streptococcus mutans ATCC 25175 assessed as effect on planktonic growth at 87.5 ug/ml after 20 hrs relative to control; format: functional
Pseudomonas aeruginosa [14] = test: Antibacterial activity against Pseudomonas aeruginosa ATCC 27853 assessed as effect on planktonic growth at 0.17 ug/ml after 20 hrs relative to control; format: functional
[15] = test system: Staphylococcus epidermidis; test: Antibacterial activity against Staphylococcus epidermidis ATCC 35547 assessed as inhibition of biofilm formation after 20 hrs by crystal-violet staining method; format: functional, organism-based; details: for IC50: ATCC 35547, 20 h
Pseudomonas aeruginosa [16] = test: Antibacterial activity against Pseudomonas aeruginosa ATCC 27853 assessed as effect on planktonic growth at 10.9 ug/ml after 20 hrs relative to control; format: functional
Streptococcus mutans [17] = test: Antibacterial activity against Streptococcus mutans ATCC 25175 assessed as effect on planktonic growth at 0.68 ug/ml after 20 hrs relative to control; format: functional
Pseudomonas aeruginosa [18] = test: Antibacterial activity against Pseudomonas aeruginosa ATCC 27853 assessed as effect on planktonic growth at 2.73 ug/ml after 20 hrs relative to control; format: functional
[19] = test system: Staphylococcus epidermidis; test: Antibacterial activity against Staphylococcus epidermidis ATCC 35547 assessed as effect on planktonic growth at 43.8 ug/ml after 20 hrs relative to control; format: functional
[20] = test system: Staphylococcus epidermidis; test: Antibacterial activity against Staphylococcus epidermidis ATCC 35547 assessed as effect on planktonic growth at 5.5 ug/ml after 20 hrs relative to control; format: functional
Pseudomonas aeruginosa [21] = test: Antibacterial activity against Pseudomonas aeruginosa ATCC 27853 assessed as effect on planktonic growth at 43.8 ug/ml after 20 hrs relative to control; format: functional
Streptococcus mutans [22] = test: Antibacterial activity against Streptococcus mutans ATCC 25175 assessed as effect on planktonic growth at 1.37 ug/ml after 20 hrs relative to control; format: functional
[23] = test system: Staphylococcus epidermidis; test: Antibacterial activity against Staphylococcus epidermidis ATCC 35547 assessed as effect on planktonic growth at 21.9 ug/ml after 20 hrs relative to control; format: functional
Staphylococcus aureus [24] = test: Antibacterial activity against Staphylococcus aureus ATCC 25923 assessed as effect on planktonic growth at 21.9 ug/ml after 20 hrs relative to control; format: functional
Pseudomonas aeruginosa [25] = test: Antibacterial activity against Pseudomonas aeruginosa ATCC 27853 assessed as effect on planktonic growth at 1.37 ug/ml after 20 hrs relative to control; format: functional
Streptococcus mutans [26] = test: Antibacterial activity against Streptococcus mutans ATCC 25175 assessed as effect on planktonic growth at 0.34 ug/ml after 20 hrs relative to control; format: functional
Staphylococcus aureus [27] = test: Antibacterial activity against Staphylococcus aureus ATCC 25923 assessed as effect on planktonic growth at 43.8 ug/ml after 20 hrs relative to control; format: functional
Staphylococcus aureus [28] = test: Antibacterial activity against Staphylococcus aureus ATCC 25923 assessed as effect on planktonic growth at 5.5 ug/ml after 20 hrs relative to control; format: functional
Staphylococcus aureus [29] = test: Antibacterial activity against Staphylococcus aureus ATCC 25923 assessed as effect on planktonic growth at 1.37 ug/ml after 20 hrs relative to control; format: functional
Pseudomonas aeruginosa [30] = test: Antibacterial activity against Pseudomonas aeruginosa ATCC 27853 assessed as effect on planktonic growth at 0.34 ug/ml after 20 hrs relative to control; format: functional
Streptococcus mutans [31] = test: Antibacterial activity against Streptococcus mutans ATCC 25175 assessed as effect on planktonic growth at 21.9 ug/ml after 20 hrs relative to control; format: functional
Pseudomonas aeruginosa [32] = test: Antibacterial activity against Pseudomonas aeruginosa ATCC 27853 assessed as inhibition of biofilm formation after 20 hrs by crystal-violet staining method; format: functional, organism-based; details: for IC50: ATCC 27853, 20 h
[33] = test system: Staphylococcus epidermidis; test: Antibacterial activity against Staphylococcus epidermidis ATCC 35547 assessed as effect on planktonic growth at 10.9 ug/ml after 20 hrs relative to control; format: functional
[34] = test system: Staphylococcus epidermidis; test: Antibacterial activity against Staphylococcus epidermidis ATCC 35547 assessed as effect on planktonic growth at 0.68 ug/ml after 20 hrs relative to control; format: functional
Staphylococcus aureus [35] = test: Antibacterial activity against Staphylococcus aureus ATCC 25923 assessed as effect on planktonic growth at 0.17 ug/ml after 20 hrs relative to control; format: functional
Streptococcus mutans [36] = test: Antibacterial activity against Streptococcus mutans ATCC 25175 assessed as effect on planktonic growth at 5.5 ug/ml after 20 hrs relative to control; format: functional
Staphylococcus aureus [37] = test: Antibacterial activity against Staphylococcus aureus ATCC 25923 assessed as effect on planktonic growth at 2.73 ug/ml after 20 hrs relative to control; format: functional
Streptococcus mutans [38] = test: Antibacterial activity against Streptococcus mutans ATCC 25175 assessed as effect on planktonic growth at 2.73 ug/ml after 20 hrs relative to control; format: functional
Pseudomonas aeruginosa [39] = test: Antibacterial activity against Pseudomonas aeruginosa ATCC 27853 assessed as effect on planktonic growth at 5.5 ug/ml after 20 hrs relative to control; format: functional
[40] = test system: Staphylococcus epidermidis; test: Antibacterial activity against Staphylococcus epidermidis ATCC 35547 assessed as effect on planktonic growth at 0.34 ug/ml after 20 hrs relative to control; format: functional
[41] = test system: Staphylococcus epidermidis; test: Antibacterial activity against Staphylococcus epidermidis ATCC 35547 assessed as effect on planktonic growth at 2.73 ug/ml after 20 hrs relative to control; format: functional
Streptococcus mutans [42] = test: Antibacterial activity against Streptococcus mutans ATCC 25175 assessed as effect on planktonic growth at 43.8 ug/ml after 20 hrs relative to control; format: functional

Q: What does the source list for `COc1cccc(/C=C2/C(c3cc(Cl)ccc3OC)=C(Br)C(=O)N2CC(C)C)c1`?
A: Activity (Pseudomonas aeruginosa [1]): 1%; Activity (Staphylococcus aureus [2]): -3%; Activity (Staphylococcus aureus [3]): -7.2%; Activity [4]: -2.6%; Activity [5]: 5.8%; Activity (Streptococcus mutans [6]): 1.2%; Activity (Pseudomonas aeruginosa [7]): -10%; Activity (Streptococcus mutans [8]): -19.6%; Activity (Pseudomonas aeruginosa [9]): -2.1%; Activity [10]: 35.5%; Activity (Staphylococcus aureus [11]): 13%; Activity (Staphylococcus aureus [12]): -9.6%; Activity (Streptococcus mutans [13]): 30.8%; Activity (Pseudomonas aeruginosa [14]): 3.2%; inhibition [15]: Dose-dependent effect; IC50 [15]: 41 µg/mL (≈ 86 µM); Activity (Pseudomonas aeruginosa [16]): -15.5%; Activity (Streptococcus mutans [17]): -17.3%; Activity (Pseudomonas aeruginosa [18]): 0.2%; Activity [19]: 24.6%; Activity [20]: -2.3%; Activity (Pseudomonas aeruginosa [21]): -8.9%; Activity (Streptococcus mutans [22]): -4.4%; Activity [23]: 11.3%; Activity (Staphylococcus aureus [24]): 7.2%; Activity (Pseudomonas aeruginosa [25]): 0.8%; Activity (Streptococcus mutans [26]): -18.2%; Activity (Staphylococcus aureus [27]): -11.3%; Activity (Staphylococcus aureus [28]): -3.5%; Activity (Staphylococcus aureus [29]): -5.7%; Activity (Pseudomonas aeruginosa [30]): 2.8%; Activity (Streptococcus mutans [31]): 6.2%; inhibition (Pseudomonas aeruginosa [32]): Dose-dependent effect; IC50 (Pseudomonas aeruginosa [32]): > 87.5 µg/mL; Activity [33]: 0.9%; Activity [34]: 5.5%; Activity (Staphylococcus aureus [35]): -2.6%; Activity (Streptococcus mutans [36]): 2.6%; Activity (Staphylococcus aureus [37]): -13.7%; Activity (Streptococcus mutans [38]): -6.5%; Activity (Pseudomonas aeruginosa [39]): -9.1%; Activity [40]: -0.7%; Activity [41]: -3.8%; Activity (Streptococcus mutans [42]): 12.3%

Q: Which results are given for `COc1ccc(Br)cc1C1=C(Br)C(=O)N(CC(C)C)/C1=C\c1ccc(Br)cc1`?
A: Activity (Pseudomonas aeruginosa [1]): -0.2%; Activity (Staphylococcus aureus [2]): 0.3%; Activity (Staphylococcus aureus [3]): 1%; Activity [4]: 5.7%; Activity [5]: 3.3%; Activity (Streptococcus mutans [6]): -5%; Activity (Pseudomonas aeruginosa [7]): -1.3%; Activity (Streptococcus mutans [8]): 6%; Activity (Pseudomonas aeruginosa [9]): 12.6%; Activity [10]: 88.4%; Activity (Staphylococcus aureus [11]): 6%; Activity (Staphylococcus aureus [12]): -0.5%; Activity (Streptococcus mutans [13]): -15.8%; Activity (Pseudomonas aeruginosa [14]): 4.1%; inhibition [15]: Dose-dependent effect; IC50 [15]: 67.5 µg/mL (≈ 118 µM); Activity (Pseudomonas aeruginosa [16]): -2.6%; Activity (Streptococcus mutans [17]): 5.8%; Activity (Pseudomonas aeruginosa [18]): 0.8%; Activity [19]: 78.7%; Activity [20]: 0.9%; Activity (Pseudomonas aeruginosa [21]): 3.4%; Activity (Streptococcus mutans [22]): 8.3%; Activity [23]: 32.6%; Activity (Staphylococcus aureus [24]): 0.8%; Activity (Pseudomonas aeruginosa [25]): 1%; Activity (Streptococcus mutans [26]): -0.3%; Activity (Staphylococcus aureus [27]): 5.5%; Activity (Staphylococcus aureus [28]): -2.1%; Activity (Staphylococcus aureus [29]): -0.5%; Activity (Pseudomonas aeruginosa [30]): 0.3%; Activity (Streptococcus mutans [31]): -14.6%; inhibition (Pseudomonas aeruginosa [32]): Dose-dependent effect; IC50 (Pseudomonas aeruginosa [32]): > 87.5 µg/mL; Activity [33]: 12.3%; Activity [34]: 10%; Activity (Staphylococcus aureus [35]): -3.9%; Activity (Streptococcus mutans [36]): -3.3%; Activity (Staphylococcus aureus [37]): -2.4%; Activity (Streptococcus mutans [38]): -5.3%; Activity (Pseudomonas aeruginosa [39]): 0.6%; Activity [40]: 14.1%; Activity [41]: 11.2%; Activity (Streptococcus mutans [42]): -31.4%
